Experimental data reported in ChEMBL document CHEMBL1201862, “PubChem BioAssay data set” (2004).
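These data come from cells grown in 96-well plates and exposed to compound for 48 hours at five concentrations. At the GI50, growth is halved.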 Calls of active or inactive are those of the source. Cut-off read from the data, not from the text of the source: active = GI50 up to about 1.1 µM and inactive = higher.

Legend:
Experiment in all cases: DTP human tumour cell line panel, 48 h
HOP-92 = test system: HOP-92
OVCAR-4 = test system: OVCAR-4
RXF 393 = test system: RXF 393
SF-268 = test system: SF-268
A549 = test system: A549
NCI-H522 = test system: NCI-H522
SK-MEL-28 = test system: SK-MEL-28
NCI-H226 = test system: NCI-H226
HCT-116 = test system: HCT-116
LOX IMVI = test system: LOX IMVI
SW-620 = test system: SW-620
DLD-1 = test system: DLD-1
SK-MEL-2 = test system: SK-MEL-2
OVCAR-5 = test system: OVCAR-5
Malme-3M = test system: Malme-3M
SNB-19 = test system: SNB-19
SNB-78 = test system: SNB-78
TK-10 = test system: TK-10
KM12 = test system: KM12
HCT-15 = test system: HCT-15
HOP-18 = test system: HOP-18
RXF 631 = test system: RXF 631
UACC-62 = test system: UACC-62
IGROV-1 = test system: IGROV-1
ACHN = test system: ACHN
SK-MEL-5 = test system: SK-MEL-5
SF-539 = test system: SF-539
NCI-H460 = test system: NCI-H460
SF-295 = test system: SF-295
DMS-114 = test system: DMS-114
UO-31 = test system: UO-31
KM-20L2 = test system: KM-20L2
SN12C = test system: SN12C
RPMI-8226 = test system: RPMI-8226
NCI-H23 = test system: NCI-H23
COLO 205 = test system: COLO 205
HT-29 = test system: HT-29
M19-MEL = test system: M19-MEL
HCC 2998 = test system: HCC 2998
U-251 = test system: U-251
M14 = test system: M14
OVCAR-3 = test system: OVCAR-3
DMS-273 = test system: DMS-273
SK-OV-3 = test system: SK-OV-3
SNB-75 = test system: SNB-75
XF498 = test system: XF498
OVCAR-8 = test system: OVCAR-8
LXFL 529 = test system: LXFL 529
EKVX = test system: EKVX
CAKI-1 = test system: CAKI-1
A498 = test system: A498
HOP-62 = test system: HOP-62
UACC-257 = test system: UACC-257
CCRF-CEM = test system: CCRF-CEM
SR = test system: SR
MOLT-4 = test system: MOLT-4
HL-60 = test system: HL-60

Measured: GI50

CCC1C(C#N)=C(O)NC(O)=C1C#N
inactive: HOP-92 > 100 µM | OVCAR-4 > 100 µM | RXF 393 > 100 µM | SF-268 > 100 µM | A549 > 100 µM | NCI-H522 > 100 µM | SK-MEL-28 > 100 µM | NCI-H226 > 100 µM | HCT-116 > 100 µM | LOX IMVI > 100 µM | SW-620 > 100 µM | DLD-1 > 100 µM | SK-MEL-2 > 100 µM | OVCAR-5 > 100 µM | Malme-3M > 100 µM | SNB-19 > 100 µM | SNB-78 > 100 µM | TK-10 > 100 µM | KM12 > 100 µM | HOP-18 > 100 µM | RXF 631 > 100 µM | UACC-62 > 100 µM | IGROV-1 > 100 µM | ACHN > 100 µM | SK-MEL-5 > 100 µM | SF-539 > 100 µM | NCI-H460 > 100 µM | SF-295 > 100 µM | DMS-114 > 100 µM | UO-31 > 100 µM | KM-20L2 > 100 µM | SN12C > 100 µM | RPMI-8226 > 100 µM | NCI-H23 > 100 µM | COLO 205 > 100 µM | HT-29 > 100 µM | M19-MEL > 100 µM | HCC 2998 > 100 µM | U-251 > 100 µM | M14 > 100 µM | OVCAR-3 > 100 µM | DMS-273 > 100 µM | SK-OV-3 > 100 µM | SNB-75 > 100 µM | XF498 > 100 µM | OVCAR-8 > 100 µM | LXFL 529 > 100 µM | EKVX > 100 µM | CAKI-1 > 100 µM | A498 > 100 µM | HOP-62 > 100 µM | UACC-257 > 100 µM
> 100 µM: HCT-15

O=C1c2cccc(O)c2C(=O)c2c(O)cc(CO)cc21 [ALOE-EMODIN]
inactive: HOP-92 > 100 µM | OVCAR-4 77.8 µM | RXF 393 > 100 µM | CCRF-CEM 31.3 µM | SF-268 52.4 µM | A549 40 µM | NCI-H522 22.8 µM | SK-MEL-28 > 100 µM | SR 32.9 µM | NCI-H226 > 100 µM | HCT-116 30.1 µM | LOX IMVI 26.2 µM | SW-620 30.5 µM | DLD-1 32.5 µM | SK-MEL-2 91.8 µM | OVCAR-5 > 100 µM | Malme-3M 20.8 µM | SNB-19 49.1 µM | SNB-78 > 100 µM | TK-10 > 100 µM | KM12 40.2 µM | MOLT-4 40.8 µM | HOP-18 > 100 µM | RXF 631 67.5 µM | ACHN 32.7 µM | SK-MEL-5 15.8 µM | NCI-H460 29.4 µM | SF-295 96.2 µM | DMS-114 28.2 µM | KM-20L2 39.4 µM | HL-60 24.8 µM | SN12C 35.4 µM | RPMI-8226 31.5 µM | NCI-H23 > 100 µM | COLO 205 31.7 µM | HT-29 30.9 µM | HCC 2998 83.9 µM | U-251 > 100 µM | M14 38.4 µM | DMS-273 27.5 µM | SK-OV-3 > 100 µM | SNB-75 72.8 µM | XF498 > 100 µM | LXFL 529 56 µM | CAKI-1 49.1 µM | A498 74.3 µM | HOP-62 > 100 µM | UACC-257 49.8 µM
28.1 µM: HCT-15
